Results reported in patent US9012398B2, “Acylated exendin-4 compounds” (priority 2006, dated 2015).
Read-outs that look alike come from different tables or passages of the source. Starred links: 1 amine or outer side, 2 acyl side, 3 side chain; linkers in the order of their positions; H or OH if unused. Residues, ends and D or L forms follow the SMILES beside them. Groups on a side chain read outwards from the residue. *: point of attachment. Palmitoyl(16-(5-tetrazolyl)) = O=C(CCCCCCCCCCCCCCCc1nnn[nH]1)*; C18 diacid = O=C(O)CCCCCCCCCCCCCCCCC(=O)*; γGlu = O=C(O)[C@H](CCC(=O)[*:2])N[*:1]; Stearoyl = CCCCCCCCCCCCCCCCCC(=O)*; AEEA = NCCOCCOCC(=O)O

Experiments:
human GLP-1 receptor = biological target: T1, human GLP-1 receptor (Homo sapiens, UniProt P43220); assay: Functional receptor assay: cAMP formation in plasma membranes of BHK cells expressing the cloned human GLP-1 receptor (GLP1cAMPma); format: biochemical
T1 construct: expressed in transfected cells; host or cells: BHK cells, clone BHK-467-12A; plasma membrane preparation
Summary of the method: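 Membranes from BHK cells expressing human GLP-1 receptor (6 μg) were incubated 3 h at room temperature in Tris/HEPES buffer pH 7.4 with 1 mM ATP, 1 μM GTP and 0.5 mM IBMX. cAMP was quantified by AlphaScreen competition with biotinyl-cAMP. EC50 came from a four-parameter logistic fit.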

db/db mice = assay: Pharmacodynamic study using db/db mice (blood glucose after subcutaneous dosing); format: in vivo; details: 30 nmol/kg subcutaneous
Protocol: The efficacy and duration of action were measured after dosing of 30 nmol/kg to db/db mice. Male db/db mice were shipped from Taconic, Denmark at the age of 8-10 weeks. From the time of arrival, the mice were housed under standard conditions but at 24° C. The mice were kept 10 per cage until experimentation with free access to standard chow (Altromin, Brogaarden APS., Denmark) and tap water at a normal day: light cycle (light on at 6 am). […] After this, the mice were euthanized.
After an acclimatisation period of 1 week, the blood glucose was measured by sampling from the tail tip capillary. In brief, 5 μl blood was sampled in heparinised glass capillary tubes and immediately suspended in 250 μl EBIO buffer solution (Eppendorf, Germany) in an 1.5 ml Eppendorf tube. The blood glucose concentration was measured by the glucose oxidase method at the EBIO Plus Auto analyser (Eppendorf, Germany).
The cut of value for blood glucose was 10 mM. When evaluating the mice, it was considered essential, that all 42 mice entering the experiment had blood glucose values above 10 mM, but also that the inter-mice variance was small. Therefore, if many mice were not severely diabetic, whereas some were, the start up of experiments was postponed one week and new basal blood glucose measurements were made.
Based on the basal blood glucose values, the mice were allocated to 7 groups of n=6 with matching group mean blood glucose values.
On the day of testing the basal blood glucose morning values were assessed as described above and the basal body weight of each mouse was assessed. A time 0, the compound was dosed subcutaneously in the scruff of the neck (dosing volume app. 300 μl/50 g mouse).
The blood glucose values were followed up to 48 hours (time 1, 3, 6, 24 and 48 h) and the terminal body weight was assessed.
All data were entered into Graphpad Prism where mean blood glucose and mean delta body weights were calculated.

T1 sequence (P43220 24-463): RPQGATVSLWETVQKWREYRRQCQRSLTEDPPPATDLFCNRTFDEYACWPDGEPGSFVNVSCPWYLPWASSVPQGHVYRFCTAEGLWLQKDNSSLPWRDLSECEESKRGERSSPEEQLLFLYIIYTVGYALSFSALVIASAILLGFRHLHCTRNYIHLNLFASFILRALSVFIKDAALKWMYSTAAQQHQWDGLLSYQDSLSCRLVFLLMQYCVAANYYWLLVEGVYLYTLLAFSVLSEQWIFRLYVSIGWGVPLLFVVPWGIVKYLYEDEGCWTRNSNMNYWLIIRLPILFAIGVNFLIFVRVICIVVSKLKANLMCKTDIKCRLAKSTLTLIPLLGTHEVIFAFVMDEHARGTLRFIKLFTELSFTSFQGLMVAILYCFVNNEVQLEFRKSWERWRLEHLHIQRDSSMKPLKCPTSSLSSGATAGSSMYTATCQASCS

SMILES	EC50 (human GLP-1 receptor; cAMP, membranes with human GLP-1 receptor, mean value, read-out: GLP1cAMPma (3693) [EC50 (nM)] Mean Value) [nM]	Delta AUC for blood glucose after 30 nmol/kg in db/db mice, 48 hours (db/db mice)	EC50 (human GLP-1 receptor) [nM]
CC[C@H](C)[C@H](NC(=O)[C@H](Cc1ccccc1)NC(=O)[C@H](CC(C)C)NC(=O)[C@H](CCCNC(=N)N)NC(=O)[C@@H](NC(=O)[C@H](C)NC(=O)[C@H](CCC(=O)O)NC(=O)[C@H](CCC(=O)O)NC(=O)[C@H](CCC(=O)O)NC(=O)[C@H](CC(C)C)NC(=O)[C@H](CCC(N)=O)NC(=O)[C@H](CCCNC(=N)N)NC(=O)[C@H](CO)NC(=O)[C@H](CC(C)C)NC(=O)[C@H](CC(=O)O)NC(=O)[C@H](CO)NC(=O)[C@@H](NC(=O)[C@H](Cc1ccccc1)NC(=O)[C@@H](NC(=O)CNC(=O)[C@H](CCC(=O)O)NC(=O)CNC(=O)[C@@H](N)Cc1c[nH]cn1)[C@@H](C)O)[C@@H](C)O)C(C)C)C(=O)N[C@@H](CCC(=O)O)C(=O)N[C@@H](Cc1c[nH]c2ccccc12)C(=O)N[C@@H](CC(C)C)C(=O)N[C@@H](CCCNC(=N)N)C(=O)N[C@@H](CC(N)=O)C(=O)NCC(=O)NCC(=O)N1CCC[C@H]1C(=O)N[C@@H](CO)C(=O)N[C@@H](CO)C(=O)N[C@@H](CCCCNC(=O)COCCOCCNC(=O)CC[C@H](NC(=O)CCCCCCCCCCCCCCCc1nnn[nH]1)C(=O)O)C(=O)N[C@@H](C)C(=O)N1CCC[C@H]1C(=O)N1CCC[C@H]1C(=O)N1CCC[C@H]1C(=O)N[C@@H](CO)C(N)=O [Example 9] (H-HGEGTFTSDLSRQLEEEAVRLFIEWLRNGGPSSK([AEEA-γGlu-Palmitoyl(16-(5-tetrazolyl))])APPPS-NH2)	0.61	−395 ± 222, *** mM × hour	
CCCCCCCCCCCCCCCCCC(=O)NCCOCCOCC(=O)NCCOCCOCC(=O)NCCOCCOCC(=O)NCCCC[C@H](NC(=O)[C@@H](NC(=O)[C@H](C)NC(=O)[C@H](CCC(=O)O)NC(=O)[C@H](CCC(=O)O)NC(=O)[C@H](CCC(=O)O)NC(=O)[C@H](CC(C)C)NC(=O)[C@H](CCC(N)=O)NC(=O)[C@H](CCCNC(=N)N)NC(=O)[C@H](CO)NC(=O)[C@H](CC(C)C)NC(=O)[C@H](CC(=O)O)NC(=O)[C@H](CO)NC(=O)[C@@H](NC(=O)[C@H](Cc1ccccc1)NC(=O)[C@@H](NC(=O)CNC(=O)[C@H](CCC(=O)O)NC(=O)CNC(=O)[C@@H](N)Cc1c[nH]cn1)[C@@H](C)O)[C@@H](C)O)C(C)C)C(=O)N[C@@H](CC(C)C)C(=O)N[C@@H](Cc1ccccc1)C(=O)N[C@H](C(=O)N[C@@H](CCC(=O)O)C(=O)N[C@@H](Cc1c[nH]c2ccccc12)C(=O)N[C@@H](CC(C)C)C(=O)N[C@@H](CCCNC(=N)N)C(=O)N[C@@H](CCCNC(=N)N)C(=O)NCC(=O)NCC(=O)N1CCC[C@H]1C(=O)N[C@@H](CO)C(=O)N[C@@H](CO)C(=O)NCC(=O)N[C@@H](C)C(=O)N1CCC[C@H]1C(=O)N1CCC[C@H]1C(=O)N1CCC[C@H]1C(=O)N[C@@H](CO)C(N)=O)[C@@H](C)CC [Example 5, N-ε^20-(2-(2-(2-(2-(2-(2-(2-(2-(2-(Octadecanoylamino)ethoxy)ethoxy)acetylamino)ethoxy)ethoxy)acetyl-amino)ethoxy)ethoxy)acety))[Arg^12,27,28,Leu^14,Lys^20 Exendin-4(1-39)amide] (H-HGEGTFTSDLSRQLEEEAVK([AEEA-AEEA-AEEA-Stearoyl])LFIEWLRRGGPSSGAPPPS-NH2; N-terminus assumed)		−410 ± 111, *** mM × hour	0.007
CC[C@H](C)[C@H](NC(=O)[C@H](Cc1ccccc1)NC(=O)[C@H](CC(C)C)NC(=O)[C@H](CCCNC(=N)N)NC(=O)[C@@H](NC(=O)[C@H](C)NC(=O)[C@H](CCC(=O)O)NC(=O)[C@H](CCC(=O)O)NC(=O)[C@H](CCC(=O)O)NC(=O)[C@H](CC(C)C)NC(=O)[C@H](CCC(N)=O)NC(=O)[C@H](CCCNC(=N)N)NC(=O)[C@H](CO)NC(=O)[C@H](CC(C)C)NC(=O)[C@H](CC(=O)O)NC(=O)[C@H](CO)NC(=O)[C@@H](NC(=O)[C@H](Cc1ccccc1)NC(=O)[C@@H](NC(=O)CNC(=O)[C@H](CCC(=O)O)NC(=O)CNC(=O)[C@@H](N)Cc1c[nH]cn1)[C@@H](C)O)[C@@H](C)O)C(C)C)C(=O)N[C@@H](CCC(=O)O)C(=O)N[C@@H](Cc1c[nH]c2ccccc12)C(=O)N[C@@H](CC(C)C)C(=O)N[C@@H](CCCNC(=N)N)C(=O)N[C@@H](CC(N)=O)C(=O)NCC(=O)NCC(=O)N1CCC[C@H]1C(=O)N[C@@H](CO)C(=O)N[C@@H](CO)C(=O)N[C@@H](CCCCNC(=O)COCCOCCNC(=O)CCCCCCCCCCCCCCCCC(=O)O)C(=O)N[C@@H](C)C(=O)N1CCC[C@H]1C(=O)N1CCC[C@H]1C(=O)N1CCC[C@H]1C(=O)N[C@@H](CO)C(N)=O [Example 8, N-ε^34-(2-(2-(2-(17-carboxyheptadecanoylamino)ethoxy)ethoxy)acetyl) [Leu^14,Arg^12,27,Lys^34]Exendin-4(1-39)amide] (H-HGEGTFTSDLSRQLEEEAVRLFIEWLRNGGPSSK([AEEA-C18 diacid])APPPS-NH2)		−500 ± 122, *** mM × hour	0.44
